Experimental findings from patent US7879848B2, “Dipeptidyl Peptidase-IV inhibiting compounds, method of preparing the same, and pharmaceutical compositions containing the same as an active agent” (LG Life Sciences, Ltd., priority 2005, dated 2011) are described below.

The structures appear in SMILES notation.

For this experiment, the target named is T1, Dipeptidyl Peptidase-IV (DPP-IV) (Homo sapiens, UniProt P27487).
T1 construct: made in house
T1 sequence (P27487 whole entry): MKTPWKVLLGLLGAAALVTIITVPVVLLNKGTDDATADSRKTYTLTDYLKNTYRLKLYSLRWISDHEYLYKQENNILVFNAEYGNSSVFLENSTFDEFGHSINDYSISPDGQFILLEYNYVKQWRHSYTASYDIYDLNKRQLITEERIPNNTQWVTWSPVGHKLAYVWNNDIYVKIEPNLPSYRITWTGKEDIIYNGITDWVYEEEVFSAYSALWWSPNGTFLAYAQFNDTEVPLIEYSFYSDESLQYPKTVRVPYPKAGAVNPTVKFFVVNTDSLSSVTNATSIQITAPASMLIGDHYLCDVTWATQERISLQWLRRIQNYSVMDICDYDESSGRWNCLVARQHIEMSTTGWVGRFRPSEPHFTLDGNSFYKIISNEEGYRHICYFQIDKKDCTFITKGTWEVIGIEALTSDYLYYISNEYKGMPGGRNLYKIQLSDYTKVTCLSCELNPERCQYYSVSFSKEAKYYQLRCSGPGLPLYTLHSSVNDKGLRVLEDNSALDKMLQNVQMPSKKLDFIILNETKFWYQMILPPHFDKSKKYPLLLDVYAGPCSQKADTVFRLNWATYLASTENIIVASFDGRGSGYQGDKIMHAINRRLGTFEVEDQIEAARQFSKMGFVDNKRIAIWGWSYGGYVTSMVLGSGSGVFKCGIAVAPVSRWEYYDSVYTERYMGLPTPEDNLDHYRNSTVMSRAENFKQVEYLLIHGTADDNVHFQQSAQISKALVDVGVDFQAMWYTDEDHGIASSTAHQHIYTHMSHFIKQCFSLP
Put plainly: Measurement of DPP-IV Activity-Inhibiting Ability (fluorescent substrate Ac-Gly-Pro-AFC). Format: biochemical. To be noted: 25° C., 50 mmol HEPES (pH 7.4), DP-IV 7.1 nM, enzyme reaction for 1 hour. The text has this:
Dipeptidyl Peptidase-IV (DPP-IV), known as serine protease, was obtained by a modification of the known method (Tanaka T. et al, Proc. Natl. Acad. Sci. USA, (1994) 91, 3082-3086), which comprises cloning, purification by use of Baculo-Virus and activation steps. DPP-IV was used to test the pharmaceutical efficacy of candidate inhibitors as follows. The cloned DP-IV was expressed in Baculo-Virus, which was purified by nickel column and then subjected to dialysis. The inhibitors synthesized in Examples were tested to determine the binding activity there of using a fluorescent substrate, Ac-Gly-Pro-AFC. Enzyme reactions were conducted for various concentrations of inhibitors, using 100 µM Ac-Gly-Pro-AFC at 25° C. in a buffer solution containing 50 mmol HEPES (pH 7.4), with the concentration of DP-IV being 7.1 nM. […] As the fluorescent spectrometer, Spectra MAX GeminiXS fluorescent spectrometer from Molecular Device Co. was used and the excitation frequency and emission frequency were set to 400 nm and 505 nm, respectively.
Compound `N[C@@H](CC(=O)N1CCn2c(nnc2C(F)(F)F)C1)CN1CCC(C(F)(F)F)CC1=O` (stereo partly drawn) [Ex. 14, 1-[2S-amino-4-oxo-4-(3-trifluoromethyl-5,6-dihydro-8H-[1,2,4]triazolo[4,3-a]pyrazin-7-yl)-butyl]-4-trifluoromethyl-piperidin-2-one] displayed an IC50 of 217 nM. In other words, the sub-micromolar range. In the case of `N[C@@H](CC(=O)N1CCn2c(nnc2C(F)(F)F)C1)CN1CC(C(F)(F)F)CCC1=O` (stereo partly drawn) [Ex. 15, 1-[2S-amino-4-oxo-4-(3-trifluoromethyl-5,6-dihydro-8H-[1,2,4]triazolo[4,3-a]pyrazin-7-yl)-butyl]-5-trifluoromethyl-piperidin-2-one], half-maximal inhibition (IC50) required 2500 nM. The value for `CC1CN(C[C@@H](N)CC(=O)N2CCn3c(nnc3C(F)(F)F)C2)C(=O)CO1` (stereo partly drawn) [Ex. 16, 4-[2S-amino-4-oxo-4-(3-trifluoromethyl-5,6-dihydro-8H-[1,2,4]triazolo[4,3-a]pyrazin-7-yl)-butyl]-6-methyl-morpholin-3-one] was 66 nM; that for `N[C@@H](CC(=O)N1CCc2ccccc2C1)CN1CCCCC1=O` [Ex. 17, 1-[2S-amino-4-(3,4-dihydro-1H-isoquinolin-2-yl)-4-oxo-butyl]-piperidin-2-one] was 2020 nM; that for `CC1CC(=O)N(C[C@@H](N)CC(=O)N2CCc3ccccc3C2)C1` (stereo partly drawn) [Ex. 18, 1-[2S-amino-4-(3,4-dihydro-1H-isoquinolin-2-yl)-4-oxo-butyl]-4-methyl-pyrrolidin-2-one] was 816 nM.

`N[C@@H](CC(=O)N1CCc2c(noc2C(F)(F)F)C1)CN1CCCCC1=O` [Ex. 19, 1-[2S-amino-4-oxo-4-(3-trifluoromethyl-4,5-dihydro-7H-isooxazolo[3,4-c]pyridin-6-yl)butyl]-piperidin-2-one] registered an IC50 of 712 nM.

As for `N[C@@H](CC(=O)N1CCc2c(C(F)(F)F)n[nH]c2C1)CN1CCCCC1=O` [Ex. 20, 1-[2S-amino-4-oxo-4-(3-trifluoromethyl-1,4,5,7-tetrahydro-pyrazolo[3,4-c]pyridin-6-yl)-butyl]-piperidin-2-one], the IC50 is 268 nM. As for `C[C@@H]1CCC(=O)N(C[C@@H](N)CC(=O)N2CCc3c(ncnc3C(F)(F)F)C2)C1` [Ex. 21], the half-maximal inhibitory concentration (IC50) is 24 nM. The value for `C[C@@H]1CCC(=O)N(C[C@@H](N)CC(=O)N2CCc3c(nc(-c4ccccc4)nc3C(F)(F)F)C2)C1` [Ex. 22, (5R)-1-{(2S)-2-amino-4-oxo-4-[2-phenyl-4-(trifluoromethyl)-5,8-dihydropyrido[3,4-d]pyrimidin-7(6H)-yl]butyl}-5-methylpiperidin-2-one] was 49 nM. The value for `C[C@H]1CN(C[C@@H](N)CC(=O)N2CCc3c(nc(-c4ccccc4)nc3C(F)(F)F)C2)C(=O)CO1` [Ex. 23] was 130 nM; that for `N[C@@H](CC(=O)N1CCc2c(nc(-c3ccccc3)nc2C(F)(F)F)C1)CN1CC(F)(F)CCC1=O` [Ex. 24, 1-{(2S)-2-amino-4-oxo-4-[2-phenyl-4-(trifluoromethyl)-5,8-dihydropyrido[3,4-d]pyrimidin-7(6H)-yl]butyl}-5,5-difluoropiperidin-2-one] was 66 nM. The value for `N[C@@H](CC(=O)N1CCc2c(nc(C3CC3)nc2C(F)(F)F)C1)CN1CC(F)(F)CCC1=O` [Ex. 25, 1-{(2S)-2-amino-4-[2-cyclopropyl-4-(trifluoromethyl)-5,8-dihydropyrido[3,4-d]pyrimidin-7(6H)-yl]-4-oxobutyl}-5,5-difluoropiperidin-2-one] was 9 nM; that for `C[C@@H]1CCC(=O)N(C[C@@H](N)CC(=O)N2CCc3c(nc(C4CC4)nc3C(F)(F)F)C2)C1` [Ex. 26, 1-{(2S)-2-amino-4-[2-cyclopropyl-4-(trifluoromethyl)-5,8-dihydropyrido[3,4-d]pyrimidin-7(6H)-yl]-4-oxobutyl}-5-methylpiperidin-2-one] was 5 nM. `C[C@H]1CN(C[C@@H](N)CC(=O)N2CCc3c(nc(C4CC4)nc3C(F)(F)F)C2)C(=O)CO1` [Ex. 27, (6S)-4-{(2S)-2-amino-4-[2-cyclopropyl-4-(trifluoromethyl)-5,8-dihydropyrido[3,4-d]pyrimidin-7(6H)-yl]-4-oxobutyl}-6-methylmorpholine-3-one]: it took 28 nM to reach half-maximal inhibition (IC50). This IC50 is about 5.6-fold higher than that of the compound before. For `N[C@@H](CC(=O)N1CCc2c(cccc2C(F)(F)F)C1)CN1CC(F)(F)CCC1=O` [Ex. 28, 1-{(2S)-2-amino-4-oxo-4-[5-(trifluoromethyl)-3,4-dihydroisoquinolin-2(1H)-yl]butyl}5,5-difluoropiperidin-2-one] the value was 1160 nM; for `C[C@H]1CN(C[C@@H](N)CC(=O)N2CCc3c(cccc3C(F)(F)F)C2)C(=O)CO1` [Ex. 29, (6S)-4-{(2S)-2-amino-4-oxo-4-[5-(trifluoromethyl)-3,4-dihydroisoquinolin-2(1H)-yl]butyl}-6-methylmorpholine-3-one], 175 nM; for `N[C@@H](CC(=O)N1CCc2c(nc(-c3ccc(F)cc3)nc2C(F)(F)F)C1)CN1CC(F)(F)CCC1=O` [Ex. 30, 1-{(2S)-2-amino-4-[2-(4-fluorophenyl)-4-(trifluoromethyl)-5,8-dihydropyrido[3,4-d]pyrimidin-7(6H)-yl]-4-oxobutyl}-5,5-difluoropiperidin-2-one], 21 nM.

In turn, `C[C@H]1CN(C[C@@H](N)CC(=O)N2CCc3c(nc(-c4ccc(F)cc4)nc3C(F)(F)F)C2)C(=O)CO1` [Ex. 31] came in with a 50% inhibitory concentration (IC50) of 25 nM. The value for `N[C@@H](CC(=O)N1CCc2c(nc(-c3cccc(F)c3)nc2C(F)(F)F)C1)CN1CC(F)(F)CCC1=O` [Ex. 32, 1-{(2S)-2-amino-4-[2-(3-fluorophenyl)-4-(trifluoromethyl)-5,8-dihydropyrido[3,4-d]pyrimidin-7(6H)-yl]-4-oxobutyl}-5,5-difluoropiperidin-2-one] was 199 nM; that for `C[C@H]1CN(C[C@@H](N)CC(=O)N2CCc3c(nc(-c4cccc(F)c4)nc3C(F)(F)F)C2)C(=O)CO1` [Ex. 33] was 170 nM; that for `C[C@@H]1CCC(=O)N(C[C@@H](N)CC(=O)N2CCc3c(nc(-c4ccc(F)cc4)nc3C(F)(F)F)C2)C1` [Ex. 34, (5R)-1-{(2S)-2-amino-4-[2-(4-fluorophenyl)-4-(trifluoromethyl)-5,8-dihydropyrido[3,4-d]pyrimidin-7(6H)-yl]-4-oxobutyl}-5-methylpiperidin-2-one] was 34 nM. In turn, `N[C@@H](CC(=O)N1CCc2c(nc(-c3ccc(F)c(F)c3)nc2C(F)(F)F)C1)CN1CC(F)(F)CCC1=O` [Ex. 35, 1-{(2S)-2-amino-4-[2-(3,4-difluorophenyl)-4-(trifluoromethyl)-5,8-dihydropyrido[3,4-d]pyrimidin-7(6H)-yl]-4-oxobutyl}-5,5-difluoropiperidin-2-one] gave an IC50 of 51 nM. For `C[C@H]1CN(C[C@@H](N)CC(=O)N2CCc3c(nc(-c4ccc(F)c(F)c4)nc3C(F)(F)F)C2)C(=O)CO1` [Ex. 36] the value was 33 nM. For `C[C@@H]1CCC(=O)N(C[C@@H](N)CC(=O)N2CCc3c(nc(-c4ccc(F)c(F)c4)nc3C(F)(F)F)C2)C1` [Ex. 37, (5R)-1-{(2S)-2-amino-4-[2-(3,4-difluorophenyl)-4-(trifluoromethyl)-5,8-dihydropyrido[3,4-d]pyrimidin-7(6H)-yl]-4-oxobutyl}-5-methylpiperidin-2-one] the value was 36 nM. `C[C@@H]1CCC(=O)N(C[C@@H](N)CC(=O)N2CCc3c(nc(C4CCCC4)nc3C(F)(F)F)C2)C1` [Ex. 38, (5R)-1-{(2S)-2-amino-4-[2-cyclopentyl-4-(trifluoromethyl)-5,8-dihydropyrido[3,4-d]pyrimidin-7(6H)-yl]-4-oxobutyl}-5-methylpiperidin-2-one]: it took 20 nM to reach half-maximal inhibition (IC50). For `C[C@H]1CN(C[C@@H](N)CC(=O)N2CCc3c(nc(C4CCCC4)nc3C(F)(F)F)C2)C(=O)CO1` [Ex. 39], the IC50 was 51 nM. `N[C@@H](CC(=O)N1CCc2c(nc(C3CCCC3)nc2C(F)(F)F)C1)CN1CC(F)(F)CCC1=O` [Ex. 40, 1-{(2S)-2-amino-4-[2-cyclopentyl-4-(trifluoromethyl)-5,8-dihydropyrido[3,4-d]pyrimidin-7(6H)-yl]-4-oxobutyl}-5,5-difluoropiperidin-2-one]: the IC50 was 30 nM.

On to `C[C@@H]1CCC(=O)N(C[C@@H](N)CC(=O)N2CCc3sc(-c4ccc(C(F)(F)F)cc4)nc3C2)C1` [Ex. 41, (5R)-1-[(2S)-2-amino-4-oxo-4-{2-[4-(trifluoromethyl)phenyl]-6,7-dihydro[1,3]thiazolo[4,5,c]pyridin-5(4H)-yl}butyl]-5-methylpiperidin-2-one], for which the concentration for half-maximal inhibition (IC50) came to 14 nM. In turn, `C[C@H]1CN(C[C@@H](N)CC(=O)N2CCc3sc(-c4ccc(C(F)(F)F)cc4)nc3C2)C(=O)CO1` [Ex. 42, (6S)-4-[(2S)-2-amino-4-oxo-4-{2-[4-(trifluoromethyl)phenyl]-6,7-dihydro[1,3]thiazolo[4,5,c]pyridin-5(4H)-yl}butyl]-6-methylmorpholine-3-one] gave an IC50 of 14 nM. This lies in the double-digit nanomolar range. The value for `N[C@@H](CC(=O)N1CCc2sc(-c3ccc(C(F)(F)F)cc3)nc2C1)CN1CC(F)(F)CCC1=O` [Ex. 43, 1-[(2S)-2-amino-4-oxo-4-{2-[4-(trifluoromethyl)phenyl]-6,7-dihydro[1,3]thiazolo[4,5,c]pyridin-5(4H)-yl}butyl]-5,5-difluoropiperidin-2-one] was 9 nM; that for `C[C@@H]1CCC(=O)N(C[C@@H](N)CC(=O)N2CCc3sc(-c4ccc(F)cc4)nc3C2)C1` [Ex. 44, (5R)-1-{(2S)-2-amino-4-[2-(4-fluorophenyl)-6,7-dihydro[1,3]thiazolo[4,5,c]pyridin-5(4H)-yl]-4-oxobutyl}-5-methylpiperidin-2-one] was 13 nM.
